Measurements published in US10231971B2, “Pharmaceutical composition for preventing and treating dry eye diseases, containing imatinib as active ingredient” (AVIXGEN INC., priority 2015, dated 2019).

What was measured:
[1] = tested on: keratoconjunctivitis sicca (dry eye) animal model; assay: Corneal epithelium protection: lissamine green staining of the cornea in keratoconjunctivitis sicca model; assay type: in vivo, Spraque-Dawley (SD) rats
Procedure: To carry out an experiment for dry corneal epithelial damage, a dry eye animal model was constructed. 8-week-old Spraque-Dawley (SD) rats (available from Orient Bio) were used as an animal, keratoconjunctivitis sicca was induced by administering an eye drop containing 0.1% benzalkonium chloride (Sigma Aldrich) in 1% atropine sulfate (Alcon) twice a day for 2 weeks.
The imatinib eye drop (1 mg/ml) was administered dropwise to an eye twice a day for 1 week after 7 days of administration of 1% atropine sulfate and 0.1% benzalkonium chloride. To compare therapeutic effects, a 0.05% Cyclosporin eye drop (Restasis, Allergan) was used as a reference drug.
Corneal epithelial damage was identified in the keratoconjunctivitis sicca animal model by staining a surface of the cornea with a 1% lissamin green solution and observing a damaged region thereof (see FIG. 1).
Damage to corneal epithelium cells due to dryness was identified in a keratoconjunctivitis sicca (dry eye)-induced cornea by staining a dried state of the corneal epithelium cells with lissamin green (see FIG. 1). […] A stained area after staining was expressed as a percentage (%) with respect to a total corneal area.

[2] = tested on: keratoconjunctivitis sicca (dry eye) animal model; assay: Invasion of specific inflammatory cells into the cornea: LSP-1 immunostaining in keratoconjunctivitis sicca model; assay type: in vivo, Spraque-Dawley (SD) rats; settings: imatinib eye drop 0.1%
Procedure: An experiment was carried out using the same administration method as that used in the animal model of Example 1, and then an inflammation inhibitory effect of imatinib on specific inflammatory cells invaded into the cornea was identified.
To identify inflammatory cells in the cornea in keratoconjunctivitis sicca (dry eye), the eye was cryosectioned, and inflammatory cells having an antigen of LSP-1 were stained and observed (See FIG. 5). Inflammation-associated cells such as lymphocytes, neutrophils, and macrophages have LSP-1 can be observed after being immunostained using an LSP-1 antibody. Inflammatory cells were observed by 0.61±0.05 in a control (a drug-non-treated group) and by 0.52±0.05 in an imatinib eye drop (0.1%) (See FIG. 6).

[3] = tested on: keratoconjunctivitis sicca (dry eye) animal model; settings: imatinib eye drop (0.1 mg/ml), twice a day for 1 week; FIG. 4
Procedure: White SD rats were used as an animal, and keratoconjunctivitis sicca was induced by administering 1% atropine sulfate and 0.1% benzalkonium chloride dropwise to an eye twice a day for 2 weeks.
An imatinib eye drop (0.1 mg/ml) was administered dropwise to an eye twice a day for 1 week after 7 days of administration of 1% atropine sulfate and 0.1% benzalkonium chloride.
In order to observe corneal degeneration in the keratoconjunctivitis sicca (dry eye) model, F-actin staining was performed. F-actin was stained with phalloidin labeled with a fluorescent material.

Cc1ccc(NC(=O)c2ccc(CN3CCN(C)CC3)cc2)cc1Nc1nccc(-c2cccnc2)n1 [imatinib]
lissamine green stained area as percentage of total corneal area ([1]; concentration-dependent efficacy test, 0.01% (0.1 mg/ml), vehicle control 12.8±1.98%, FIG. 3): 8.2±0.97%
lissamine green stained area as percentage of total corneal area ([1]; concentration-dependent efficacy test, 0.05% (0.5 mg/ml), vehicle control 12.8±1.98%, FIG. 3): 6.18±0.9%
lissamine green stained area as percentage of total corneal area ([1]; concentration-dependent efficacy test, 0.1% (1 mg/ml), vehicle control 12.8±1.98%, FIG. 3): 3.7±0.87%
lissamine green stained area as percentage of total corneal area ([1]; concentration-dependent efficacy test, 0.5% (5 mg/ml), vehicle control 12.8±1.98%, FIG. 3): 3.5±1.1%
lissamine green stained area as percentage of total corneal area ([1]; concentration-dependent efficacy test, 1.0% (10 mg/ml), vehicle control 12.8±1.98%, FIG. 3): 3.1±1.2%
effect on lissamine green staining when administered according to concentration ([1]; imatinib 0.01% to 1.0%, FIG. 3): concentration-dependent effect
lissamine green stained area as percentage of total corneal area ([1]; imatinib 0.1% (1 mg/ml) eye drop, twice a day for 1 week, vehicle control 11±1.26%, FIG. 2): 2.6±0.39%
effect on inflammation in keratoconjunctivitis sicca (inflammatory cell staining) [2]: had an inflammation inhibitory effect
inflammatory cells observed (LSP-1-stained cells in the cornea) ([2]; control (drug-non-treated group) 0.61±0.05, FIG. 6): 0.52±0.05
corneal degeneration (keratinization of corneal epithelial cells, F-actin staining) [3]: not observed
